Source: patent US20220257642A1, “METHODS AND COMPOSITIONS FOR GENERATING NITRIC OXIDE AND USES THEREOF TO DELIVER NITRIC OXIDE VIA THE RESPIRATORY TRACT” (THIRTY RESPIRATORY LIMITED, priority 2019, published 2022)

Tests used:
[1] = system: SARS-CoV-2 clinical isolate; test: SARS-CoV-2 virus yield reduction assay in Vero E6 cells; type: cell-based
Experimental: At time 0 hr, Vero E6 cells were infected with virus in presence of the formulation or controls and incubated for 1 hour. After this incubation period the inoculum was removed and the cells were washed. Fresh formulation or controls were then added to the washed cells. At 24 hours post infection, Vero E6 cell supernatants were harvested and titrated, and the virus titration was incubated for 6 days prior to readout to determine any virus yield reduction. Separate tests were performed at four MOIs including 3.0 and 0.3, although only those two MOIs were titrated. The readout was by crystal violet (cell monolayer) staining, followed by CPE scoring.

SMILES | SARS-CoV-2 virus titre ([1]; FIG. 33, Run 1, MOI 3.0, 24 hours) | SARS-CoV-2 virus titre ([1]; FIG. 34, Run 2, MOI 3.0 and MOI 0.3, 48 hours) | In vitro antiviral action against SARS-CoV-2 ([1]; FIGS. 33 and 34) | Cytotoxicity on the LDH assay (Vero E6 cells)
CCN(CC)CCCC(C)Nc1ccnc2cc(Cl)ccc12 (stereo not shown) [chloroquine, Chloroquine phosphate] | limit of detection | limit of detection | – | –
O=C(O)CC(O)(CC(=O)O)C(=O)O [citric acid pH 5.8, citric acid] | – | – | high in vitro antiviral action | low cytotoxicity
